Laboratory results from patent US9670162B2, “Mitochondrial aldehyde dehyrogenase-2 modulators and methods of use thereof” (The Board of Trustees of the Leland Stanford Junior …, priority 2013, dated 2017).
Changes are numbered by the printed parent chain.

Tests used:
[1] = biological target: T1, human ALDH2*2 recombinant mutant enzyme (E487K) (Homo sapiens, UniProt P05091, E504K); experiment: ALDH2 enzymatic assay (NADH at 340 nm), recombinant mutant enzyme; assay type: biochemical; design: key: −: no activation or inhibition; +: activation less than control 1; ++: activation similar to control 1, within 10%; +++: activation more than control 1 and less than control (compound 161); ++++: activation similar to compound 161, within 10%; settings: activation relative to benchmarks control 1 and compound 161
T1 construct: His-tag (pTrcHis vector) (N); made in house; host or cells: E. coli BL21
T1 sequence (P05091 18-517 E504K): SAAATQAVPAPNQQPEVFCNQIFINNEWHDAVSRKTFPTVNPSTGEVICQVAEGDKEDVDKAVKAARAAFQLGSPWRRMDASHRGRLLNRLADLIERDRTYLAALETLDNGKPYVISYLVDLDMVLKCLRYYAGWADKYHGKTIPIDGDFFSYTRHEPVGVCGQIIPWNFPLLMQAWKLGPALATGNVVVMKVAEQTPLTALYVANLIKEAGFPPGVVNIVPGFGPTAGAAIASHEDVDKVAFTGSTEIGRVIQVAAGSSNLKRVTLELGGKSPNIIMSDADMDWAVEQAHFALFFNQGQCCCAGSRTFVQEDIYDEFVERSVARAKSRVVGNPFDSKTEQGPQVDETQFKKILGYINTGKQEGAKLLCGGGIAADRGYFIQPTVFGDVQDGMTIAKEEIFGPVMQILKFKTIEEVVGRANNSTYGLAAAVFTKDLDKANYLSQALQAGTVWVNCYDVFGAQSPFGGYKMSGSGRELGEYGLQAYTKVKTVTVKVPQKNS
Description: (§1) ALDH2 catalyzes the oxidative reaction of substrate acetaldehyde to acetic acid using NAD^+ as a cofactor. Enzymatic activity, or catalytic rate, of aldehyde dehydrogenase (ALDH2) can be measured spectrophotometrically at UV wavelength λ340 nm by the accumulation of reduced product NADH derived from NAD^+. […] This method is well-established in the literature [e.g. D. K. Rex, W. F. Bosron, J. E. Smialek, T. K. Li, Alcohol Clin Exp Res 9, 147 (1985)].
(§2) Full-length wild type human ALDH2 cDNA was purchased from ATCC (No. MGC-1806. GenBank ID: BC002967). The 18-amino acid mitochondria transport signal sequence was removed by PCR and cloned into the NheI/HindIII sites of a His-tag vector, pTrcHis, using standard molecular cloning techniques. The human ALDH2* cDNA construct containing the Asian E487K mutation was obtained by site-directed mutagenesis to create the E487K substitution of the wild type ALDH2. Both human clones were designed to express a recombinant protein with the His-tag at the N-terminus of the protein. For the co-expression experiments of human ALDH2 wild type and ALDH2*2 heterotetramers, a wild type ALDH2 gene and a ALDH2 E487K gene were inserted separately into the two multiple cloning sites of pETDuet-1 vector. (Novagen, Calif., USA). All the vectors were transformed into BL21 E. coli host cells and subjected to 0.5 mM IPTG induction for protein expression at 30° C. Purifications of the recombinant proteins by affinity nickel columns (HisTrap, GE Healthy Science, USA) were carried out using standard protocols according to manufacturer's instructions (Novagen, USA).
(§3) Control 1 and compound 161 are used as benchmarks and the symbols have the following representation: […]

human ALDH2 wild type = biological target: T2, human ALDH2 wild type (Homo sapiens, UniProt P05091); experiment: ALDH2 enzymatic assay (NADH at 340 nm), recombinant wild type enzyme; assay type: biochemical; design: key: −: no activation or inhibition; +: activation less than control 1; ++: activation similar to control 1, within 10%; +++: activation more than control 1 and less than control (compound 161); ++++: activation similar to compound 161, within 10%; settings: activation relative to benchmarks control 1 and compound 161
T2 construct: His-tag (pTrcHis vector) (N); made in house; host or cells: E. coli BL21
T2 sequence (P05091 18-517): T1 sequence (P05091 18-517 E504K) with K487E
Description: as §1, §2, §3

SMILES | ALDH2 (mutant) [1] | ALDH2 (wild-type) (human ALDH2 wild type)
COc1ccc(CNC(=O)c2c(Cl)cccc2Cl)cc1Cl [Compound 100] | + | +
COc1ccc(CNC(=O)c2c(Cl)cccc2Cl)cc1O [Compound 101] | + | +
COc1ccc(CNC(=O)c2c(Cl)cccc2Cl)cc1F [Compound 102] | ++ | ++
COc1cccc(CNC(=O)c2c(Cl)cccc2Cl)c1 [Compound 103] | + | +
COc1ccc(CNC(=O)c2c(Cl)cccc2Br)cc1Cl [Compound 104] | + | +
COc1ccc(CNC(=O)c2c(Cl)cccc2Br)cc1O [Compound 105] | + | −
COc1ccc(CNC(=O)c2c(Cl)cccc2Br)cc1F [Compound 106] | ++ | +
COc1cccc(CNC(=O)c2c(Cl)cccc2Br)c1 [Compound 107] | + | +
COc1ccc(CNC(=O)c2c(Cl)cccc2Br)cc1 [Compound 108] | + | ++
COc1ccc(CNC(=O)c2c(Cl)cccc2NCCO)cc1F [Compound 109] | ++ | +
COc1ccc(CNC(=O)c2c(Cl)cccc2Oc2ccccc2)cc1F [Compound 110] | ++ | +
CN(C)c1ccc(CNC(=O)c2c(Cl)cccc2Cl)cc1 [Compound 111] | − | −
CS(=O)(=O)c1ccc(CNC(=O)c2c(Cl)cccc2Cl)cc1 [Compound 112] | + | +
COc1ccc(CNC(=O)c2c(C)cccc2Br)cc1 [Compound 113] | + | +
COc1ccc(CNC(=O)c2c(C)cccc2C)cc1 [Compound 114] | + | +
COc1ccc(CNC(=O)c2cc(Br)ccc2C)cc1 [Compound 115] | + | +
COc1ccc(CNC(=O)c2ccc(Br)cc2C)cc1 [Compound 116] | + | +
COc1ccc(CNC(=O)c2c(C)cccc2NCC(C)C)cc1F [Compound 117] | ++ | +
CS(=O)(=O)c1ccc(CNc2cccc(Cl)c2C(=O)NCc2ccc3c(c2)OCO3)cc1 [Compound 118] | + | +
COc1ccc(CNC(=O)c2c(C)cccc2C)cc1F [Compound 119] | + | −
COc1ccc(CNC(=O)c2c(NCCO)cccc2NCCO)cc1F [Compound 120] | + | −

SMILES | ALDH2 (mutant) [1] | ALDH2 (wild-type) (human ALDH2 wild type)
COc1ccc(CNC(=O)c2ccccc2Cl)cc1F [Compound 121] | + | +
COc1ccc(CNC(=O)c2c(Cl)cccc2OCCC(C)C)cc1F [Compound 122] | ++ | +
COc1ccc(CNC(=O)c2cc(Br)ccc2C)cc1F [Compound 123] | + | +
COc1ccc(CNC(=O)c2ccc(Br)cc2C)cc1F [Compound 124] | + | +
COc1ccc(CNC(=O)c2c(C)cccc2Br)cc1F [Compound 125] | + | +
O=C(O)c1ccc(CNC(=O)c2c(Cl)cccc2Br)cc1 [Compound 127] | + | +
O=C(NCc1ccc([N+](=O)[O-])cc1)c1c(Cl)cccc1Br [Compound 128] | + | +
COc1ccc(CNC(=O)c2c(Cl)cccc2NCc2cccc(C)c2)cc1F [Compound 129] | − | −
COc1ccc(CNC(=O)c2c(Cl)cccc2NCc2ccc(Cl)cc2)cc1F [Compound 130] | − | −
COc1ccc(CNC(=O)c2c(Cl)cccc2Oc2cccc(C)c2)cc1F [Compound 131] | + | +
COc1ccc(CNC(=O)c2c(Cl)cccc2Oc2ccc(C)cc2)cc1F [Compound 132] | + | +
O=C(NCc1ccc2c(c1)OCO2)c1c(Cl)cccc1NC1CCCNC1 (stereo not drawn) [Compound 133] | + | +
COc1ccc(CNC(=O)c2c(Cl)cccc2NCC2CC2)cc1F [Compound 134] | +++ | +++
COc1ccc(CNC(=O)c2c(Cl)cccc2Oc2cccc(Cl)c2)cc1F [Compound 136] | ++ | ++
COc1ccc(CNC(=O)c2c(Cl)cccc2Oc2ccc(Cl)cc2)cc1F [Compound 137] | + | ++
COc1ccc(CNC(=O)c2c(Cl)cccc2OC)cc1F [Compound 138] | +++ | ++
CCOc1cccc(Cl)c1C(=O)NCc1ccc(OC)c(F)c1 [Compound 139] | +++ | ++
COc1ccc(CNC(=O)c2c(Cl)cccc2OC(C)C)cc1F [Compound 140] | +++ | +++
C=CCOc1cccc(Cl)c1C(=O)NCc1ccc(OC)c(F)c1 [Compound 141] | +++ | ++
CCC(CC)Oc1cccc(Cl)c1C(=O)NCc1ccc(OC)c(F)c1 [Compound 142] | +++ | ++
COCCOc1cccc(Cl)c1C(=O)NCc1ccc(OC)c(F)c1 [Compound 143] | ++ | ++
